Measured values published in patent US20090048258A1, “Amide Compound” (priority 2005, published 2009).
pIC50: −log10 of the molar value. Where two headings read alike, the source gives them in different places.

Experiments:
[1] = target: T1, Human DGAT1 (Homo sapiens, UniProt O75907); test: DGAT inhibitory activity: [14C]-triglyceride synthesis by DGAT1 high expression Sf9 microsome; assay type: biochemical; details: 25 μM [14C]-Oleoyl-CoA, 32° C., 15 min, read-out: DGAT inhibitory activity (according to IC50)
T1 construct: my translation of the primer: M-G-DYKDDDD-GDRGSSRRR) (N); made in house; host or cells: Sf9 insect cells (recombinant baculovirus BAC-DGAT1, pFASTBAC1); microsome fraction
T1 sequence (O75907 1-488): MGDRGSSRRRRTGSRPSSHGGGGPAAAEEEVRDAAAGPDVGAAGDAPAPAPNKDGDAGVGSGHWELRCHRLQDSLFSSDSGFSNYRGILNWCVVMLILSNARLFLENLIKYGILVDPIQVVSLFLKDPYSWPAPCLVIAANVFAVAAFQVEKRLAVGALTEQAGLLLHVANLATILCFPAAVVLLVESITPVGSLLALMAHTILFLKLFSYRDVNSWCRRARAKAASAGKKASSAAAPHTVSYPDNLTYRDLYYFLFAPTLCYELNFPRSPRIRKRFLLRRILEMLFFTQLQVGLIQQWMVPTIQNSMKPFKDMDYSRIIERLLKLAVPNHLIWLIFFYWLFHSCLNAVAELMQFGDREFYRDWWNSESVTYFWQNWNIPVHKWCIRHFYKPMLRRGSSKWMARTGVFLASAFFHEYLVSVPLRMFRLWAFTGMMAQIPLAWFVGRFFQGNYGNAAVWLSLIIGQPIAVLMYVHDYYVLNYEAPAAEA
How it was run: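 DGAT1 was overexpressed from recombinant baculovirus in Sf9 cells, and microsomes from these cells were the enzyme source. Reactions ran in 100 mM Tris-HCl pH 7.5, 250 mM sucrose, 150 mM MgCl2 and 0.01% BSA. [14C]-triglyceride was extracted into chloroform, separated by TLC and quantified by imaging plate, with inhibition calculated against control and blank (no microsome) counts.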

[2] = Table 1, 25 μM dioleoylglycerol
[3] = Table 2, 25 μM dioleoylglycerol

| melting point | pIC50 [1, 2] | pIC50 [1, 3] | SMILES |
| --- | --- | --- | --- |
| 139 to 140 °C | 6.30 to 7.30 |  | CCOc1ccc(C(=O)CCC(=O)Nc2sc(-c3ccccc3)nc2-c2ccccc2)cc1OCC [Example 16, 4-(3,4-diethoxyphenyl)-N-(2,4-diphenyl-1,3-thiazol-5-yl)-4-oxobutanamide] |
|  |  | 7.30 to 8.00 | CCOc1ccc(C(=O)CCC(=O)Nc2cc(-c3ccccc3)c3ccc(CCC(=O)OC(C)(C)C)cc3n2)cc1OCC [Example 87, tert-butyl 3-(2-{[4-(3,4-diethoxyphenyl)-4-oxobutanoyl]amino}-4-phenylquinoline-7-yl)propanoate] |
|  |  | 6.30 to 7.30 | CCOc1ccc(C(=O)CCC(=O)Nc2cc(-c3cccc(C(C)=O)c3)cc(-c3ccccc3)n2)cc1OCC [Example 140, N-[4-(3-acetylphenyl)-6-phenylpyridin-2-yl]-4-(3,4-diethoxyphenyl)-4-oxobutanamide] |
|  | ≥ 8.00 |  | CCOc1ccc(C(=O)CCC(=O)Nc2nc(-c3ccccc3)c(Cc3ccccc3)s2)cc1 [Example 1, N-(5-benzyl-4-phenyl-1,3-thiazol-2-yl)-4-(4-ethoxyphenyl)-4-oxobutanamide] |
|  |  | 6.30 to 7.30 | CCOc1ccc(C(=O)CCC(=O)Nc2cc(-c3ccccc3)c3ccc(Br)cc3n2)cc1OCC [Example 81, N-(7-bromo-4-phenylquinolin-2-yl)-4-(3,4-diethoxyphenyl)-4-oxobutanamide] |
|  | 7.30 to 8.00 |  | CCOc1ccc(C(=O)NCCNC(=O)c2cc(-c3ccccc3)n(-c3ccc(SC)cc3)c2C)cc1 [Example 65, N-{2-[(4-ethoxybenzoyl)amino]ethyl}-2-methyl-1-[4-(methylthio)phenyl]-5-phenyl-1H-pyrrole-3-carboxamide] |
|  |  | 6.30 to 7.30 | O=C(CCC(=O)c1ccc2c(c1)CCCC2)Nc1cc(-c2ccccc2)cc(-c2ccccc2)n1 [Example 105, N-(4,6-diphenylpyridin-2-yl)-4-oxo-4-(5,6,7,8-tetrahydronaphthalen-2-yl)butanamide] |
|  | 6.30 to 7.30 |  | COc1ccc(C(=O)CCC(=O)Nc2cc(-c3ccccc3)c(Cc3ccccc3)s2)cc1CCCOC(C)=O [Example 53, 3-(5-{4-[(5-benzyl-4-phenyl-2-thienyl)amino]-4-oxobutanoyl}-2-methoxyphenyl)propyl acetate] |
|  | 6.30 to 7.30 |  | CCOc1ccc(C(=O)CCC(=O)Nc2nc(-c3ccccc3)c(Cc3ccccc3)s2)cc1/C=C/C(=O)O [Example 31, (2E)-3-(5-{4-[(5-benzyl-4-phenyl-1,3-thiazol-2-yl)amino]-4-oxobutanoyl}-2-ethoxyphenyl)acrylic acid] |
|  |  | 5.00 to 6.30 | CCOc1ccc(C(=O)CCC(=O)Nc2cc(-c3cccc(CCC(=O)O)c3)cc(-c3ccccc3)n2)cc1OCC [Example 141, 3-[3-(2-{[4-(3,4-diethoxyphenyl)-4-oxobutanoyl]amino}-6-phenylpyridin-4-yl)phenyl]propanoic acid] |
|  |  | 7.30 to 8.00 | COc1cc(-c2cc(NC(=O)CCC(=O)c3ccc4c(c3)CCO4)nc(-c3ccccc3)c2)ccc1O [Example 181, 4-(2,3-dihydro-1-benzofuran-5-yl)-N-[4-(4-hydroxy-3-methoxyphenyl)-6-phenylpyridin-2-yl]-4-oxobutanamide] |
|  |  | 7.30 to 8.00 | COC(=O)CCc1cccc(-c2cc(NC(=O)CCC(=O)c3ccc4c(c3)CCO4)nc(-c3ccccc3)c2)c1 [Example 173, methyl 3-[3-(2-{[4-(2,3-dihydro-1-benzofuran-5-yl)-4-oxobutanoyl]amino}-6-phenylpyridin-4-yl)phenyl]propanoate] |
|  |  | 5.00 to 6.30 | O=C(CCC(=O)c1ccc2c(c1)CCO2)Nc1cc(-c2cccc(C(=O)O)c2)cc(-c2ccccc2)n1 [Example 169, 3-(2-{[4-(2,3-dihydro-1-benzofuran-5-yl)-4-oxobutanoyl]amino}-6-phenylpyridin-4-yl)benzoic acid] |
|  |  | 7.30 to 8.00 | CCOc1ccc(C(=O)CCC(=O)Nc2cc(-c3cccc(CC#N)c3)cc(-c3ccccc3)n2)cc1OCC [Example 133, N-{4-[3-(cyanomethyl)phenyl]-6-phenylpyridin-2-yl}-4-(3,4-diethoxyphenyl)-4-oxobutanamide] |
